From US20230027026A1, “FUSED PYRIMIDINE COMPOUNDS, COMPOSITIONS AND MEDICINAL APPLICATIONS THEREOF” (JUBILANT BIOSYS LIMITED, priority 2019, published 2023)

Assays:
A431 cells = assay: Cellular proliferation (Alamar Blue) assay, A431; assay type: cell-based; conditions: Homo sapiens, A-431; A431 cells, 72 hr, Alamar Blue; read-out: A431 IC50
Method in brief: (§1)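 Seventy-two-hour growth assay with 3-fold compound titration (final 10–0.0005 μM) and Alamar Blue fluorescence end point, ex 540/em 590 nm.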

[1] = target: EGFR (A767_dupASV) expressing Ba/F3 stable cell line (Homo sapiens, UniProt P00533, DUP767-769, cells depend on it); assay: Cellular proliferation (Alamar Blue) assay, EGFR A767_dupASV Ba/F3; assay type: cell-based; conditions: EGFR A767_dupASV Ba/F3, 72 hr, read-out: A767 IC50
Chain of EGFR (A767_dupASV) expressing Ba/F3 stable cell line (P00533 with tags, fused parts or gaps DUP767-769): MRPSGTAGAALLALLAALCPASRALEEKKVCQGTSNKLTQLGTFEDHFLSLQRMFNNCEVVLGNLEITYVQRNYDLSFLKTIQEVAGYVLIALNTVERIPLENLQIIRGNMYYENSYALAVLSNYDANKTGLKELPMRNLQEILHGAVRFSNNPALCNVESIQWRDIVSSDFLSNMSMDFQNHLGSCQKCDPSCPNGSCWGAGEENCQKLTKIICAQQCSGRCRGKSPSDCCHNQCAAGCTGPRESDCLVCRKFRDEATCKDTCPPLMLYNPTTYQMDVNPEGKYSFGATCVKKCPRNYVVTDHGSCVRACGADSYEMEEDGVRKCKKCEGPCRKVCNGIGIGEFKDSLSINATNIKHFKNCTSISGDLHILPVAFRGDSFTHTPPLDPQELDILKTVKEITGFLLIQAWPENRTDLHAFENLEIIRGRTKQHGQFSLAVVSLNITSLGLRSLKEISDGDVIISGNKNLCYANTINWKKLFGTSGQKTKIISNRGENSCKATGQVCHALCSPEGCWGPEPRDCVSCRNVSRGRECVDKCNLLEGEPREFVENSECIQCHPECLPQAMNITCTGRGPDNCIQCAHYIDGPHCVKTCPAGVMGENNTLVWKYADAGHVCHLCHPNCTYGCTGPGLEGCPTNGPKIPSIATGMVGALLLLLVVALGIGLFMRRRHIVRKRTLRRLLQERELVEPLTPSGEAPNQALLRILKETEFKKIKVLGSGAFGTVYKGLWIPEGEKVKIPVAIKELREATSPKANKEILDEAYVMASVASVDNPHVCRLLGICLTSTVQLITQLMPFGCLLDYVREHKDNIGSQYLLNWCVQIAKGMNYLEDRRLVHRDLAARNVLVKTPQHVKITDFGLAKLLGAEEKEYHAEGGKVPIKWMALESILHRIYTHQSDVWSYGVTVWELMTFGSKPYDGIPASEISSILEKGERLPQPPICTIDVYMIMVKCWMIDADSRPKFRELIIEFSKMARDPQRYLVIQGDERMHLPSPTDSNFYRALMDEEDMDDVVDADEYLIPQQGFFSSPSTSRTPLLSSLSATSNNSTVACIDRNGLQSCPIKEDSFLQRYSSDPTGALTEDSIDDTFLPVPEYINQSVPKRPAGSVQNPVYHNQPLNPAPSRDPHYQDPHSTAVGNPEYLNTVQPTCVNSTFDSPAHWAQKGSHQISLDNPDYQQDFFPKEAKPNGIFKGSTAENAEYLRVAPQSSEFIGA
Method in brief: as §1

[2] = system: H1975 cells (L858R_T790M mutant); assay: H1975 proliferation assay; assay type: cell-based; conditions: Homo sapiens, NCI-H1975; read-out: Proliferation_Assay H1975 cells-EC50_nM L858R_T790M_mutant
[3] = target: EGFR(D770_N771insSVD) expressing Ba/F3 stable cell line (Homo sapiens, UniProt P00533, DUP768-770, cells depend on it); assay: Cellular proliferation (Alamar Blue) assay, EGFR D770_N771insSVD Ba/F3; assay type: cell-based; conditions: EGFR D770_N771insSVD Ba/F3, 72 hr, read-out: D770 IC50
Chain of EGFR(D770_N771insSVD) expressing Ba/F3 stable cell line (P00533 with tags, fused parts or gaps DUP768-770): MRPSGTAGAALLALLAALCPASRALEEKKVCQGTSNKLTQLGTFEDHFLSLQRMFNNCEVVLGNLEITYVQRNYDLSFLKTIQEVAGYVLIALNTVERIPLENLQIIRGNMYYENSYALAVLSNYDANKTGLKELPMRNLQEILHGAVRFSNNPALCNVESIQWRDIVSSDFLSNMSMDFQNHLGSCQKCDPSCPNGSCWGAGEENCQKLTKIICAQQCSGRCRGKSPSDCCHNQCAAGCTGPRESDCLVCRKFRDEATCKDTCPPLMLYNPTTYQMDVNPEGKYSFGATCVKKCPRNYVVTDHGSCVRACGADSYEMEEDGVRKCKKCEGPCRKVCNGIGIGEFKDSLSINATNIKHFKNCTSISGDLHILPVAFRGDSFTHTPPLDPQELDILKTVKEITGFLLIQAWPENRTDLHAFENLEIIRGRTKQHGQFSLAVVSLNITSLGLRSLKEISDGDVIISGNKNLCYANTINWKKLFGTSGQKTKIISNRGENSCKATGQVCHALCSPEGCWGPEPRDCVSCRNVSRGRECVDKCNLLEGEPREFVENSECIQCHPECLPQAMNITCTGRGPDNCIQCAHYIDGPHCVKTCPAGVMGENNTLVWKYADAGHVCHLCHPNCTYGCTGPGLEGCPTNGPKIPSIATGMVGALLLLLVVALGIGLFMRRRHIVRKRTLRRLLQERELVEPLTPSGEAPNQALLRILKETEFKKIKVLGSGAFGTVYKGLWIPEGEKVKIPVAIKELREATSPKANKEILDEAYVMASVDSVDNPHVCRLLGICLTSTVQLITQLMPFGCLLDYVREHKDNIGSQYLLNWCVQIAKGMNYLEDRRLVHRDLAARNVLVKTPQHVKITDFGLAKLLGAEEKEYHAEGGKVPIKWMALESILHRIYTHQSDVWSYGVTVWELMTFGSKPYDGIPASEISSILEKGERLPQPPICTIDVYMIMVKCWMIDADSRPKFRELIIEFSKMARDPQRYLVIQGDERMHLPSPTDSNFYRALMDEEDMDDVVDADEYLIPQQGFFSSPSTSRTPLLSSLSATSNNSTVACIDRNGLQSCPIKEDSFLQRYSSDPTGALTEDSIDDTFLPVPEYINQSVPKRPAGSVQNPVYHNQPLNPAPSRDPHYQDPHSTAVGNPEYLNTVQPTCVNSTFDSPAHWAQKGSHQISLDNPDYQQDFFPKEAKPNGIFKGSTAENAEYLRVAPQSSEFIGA
Method in brief: as §1

EGFR (T790M/L858R) = target: T1, EGFR (T790M/L858R) (Homo sapiens, UniProt P00533, L858R/T790M); assay: EGFR L858R/T790M enzyme inhibition assay (HTRF); assay type: biochemical; conditions: 5 μM ATP, 60 min, read-out: EGFR_L858R T790M_IC50_nM
T1 construct: GST; purchased Proqinase
T1 sequence (P00533 25-1210 T790M/L858R): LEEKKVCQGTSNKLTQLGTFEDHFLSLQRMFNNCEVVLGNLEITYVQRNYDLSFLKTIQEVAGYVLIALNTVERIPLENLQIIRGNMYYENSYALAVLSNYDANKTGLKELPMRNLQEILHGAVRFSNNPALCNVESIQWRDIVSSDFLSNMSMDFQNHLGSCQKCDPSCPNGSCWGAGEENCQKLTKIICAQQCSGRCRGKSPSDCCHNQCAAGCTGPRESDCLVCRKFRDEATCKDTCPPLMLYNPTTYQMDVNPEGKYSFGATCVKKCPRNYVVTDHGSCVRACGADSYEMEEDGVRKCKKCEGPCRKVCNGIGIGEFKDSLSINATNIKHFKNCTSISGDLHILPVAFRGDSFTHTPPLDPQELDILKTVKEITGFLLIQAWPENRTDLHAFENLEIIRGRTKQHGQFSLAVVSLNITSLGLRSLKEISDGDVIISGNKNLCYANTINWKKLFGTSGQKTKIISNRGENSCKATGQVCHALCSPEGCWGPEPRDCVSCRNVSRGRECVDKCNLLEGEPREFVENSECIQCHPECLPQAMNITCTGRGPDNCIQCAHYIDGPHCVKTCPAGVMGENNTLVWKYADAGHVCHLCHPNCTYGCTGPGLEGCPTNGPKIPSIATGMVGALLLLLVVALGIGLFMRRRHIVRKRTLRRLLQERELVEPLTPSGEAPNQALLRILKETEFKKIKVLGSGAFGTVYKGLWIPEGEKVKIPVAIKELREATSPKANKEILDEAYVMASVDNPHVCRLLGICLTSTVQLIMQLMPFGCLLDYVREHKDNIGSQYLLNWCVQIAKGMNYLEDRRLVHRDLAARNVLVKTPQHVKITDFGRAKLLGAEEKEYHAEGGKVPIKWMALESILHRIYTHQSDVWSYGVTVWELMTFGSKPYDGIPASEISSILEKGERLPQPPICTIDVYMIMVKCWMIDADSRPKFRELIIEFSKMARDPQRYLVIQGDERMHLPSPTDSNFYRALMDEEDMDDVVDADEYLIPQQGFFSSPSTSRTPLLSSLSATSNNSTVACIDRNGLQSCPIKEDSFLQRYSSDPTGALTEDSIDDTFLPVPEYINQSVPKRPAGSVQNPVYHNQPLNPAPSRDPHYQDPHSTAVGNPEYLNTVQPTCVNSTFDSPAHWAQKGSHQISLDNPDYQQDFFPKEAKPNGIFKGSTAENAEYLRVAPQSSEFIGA
Procedure: Example 2: EGFR L858R & Del19/T790M Assay Protocol (to Find the IC50 for the Compounds Using HTRF Method)
Reagents for Enzyme Assay:
• 1. Enzyme Assay Buffer: 60 mM HEPES (pH 7.4), 50 mM NaCl, 20 mM MgCl2, 5 mM MnCl2, filtered using 0.2 μm pore size, stored at 4° C. • Supplements (added fresh to the enzyme buffer): 1M DTT stock was made, 5% BSA stock and 0.1M Na3OV4 stored at 4° C. Enzyme assay buffer 50 mL, 1 M DTT 100 μL, 5% BSA 500 μL, 0.1 M Na3OV4 50 μL. • 2. GST-hEGFR (L858R), active: EGFR (T790M/L858R), active (Proqinase), 3.6 μM stock; 2.5 nM in final assay. • 3. Gastrin Precusor-Biotinylated: Gastrin precursor (Tyr87) biotinylated peptide, EEAY*GWM, Cell Signaling Tech 1310, Lot-7, Want final 0.5 μM in assay. • 4. ATP: 10 mM stock in 100 μL Enzyme assay buffer pH 7.4 prepared freshly, want 5 μM in final assay. • 5. Test compounds: Powders were dissolved in 100% DMSO and made up to a final stock concentration of 10 mM (volume in μL to add for 10 mM=mg powder X 10^5/MW). Final compound concentration in the assay plate started at 10 μM.
• 1. HTRF buffer: 50 mM Tris —HCl, pH-7.5, 100 mM NaCl, 0.1% BSA, 0.05% Tween20, 0.5 mM EDTA, filtered using 0.2 μm pore size, stored at 4° C. • Phycolink® Streptavidin-Allophycocyanin (SA-APC) Prozyme, Cat. #PJ25S, Lot #896 085, 2.06 mg/mL, APC concentration is 11.6 μM, streptavidin concentration is 15.5 μM. Want 12 nM final in assay (based on streptavidin concentration). • 2. (Europium) Eu-W1024 Anti-phosphotyrosine (PT-66) Antibody: Perkin Elmer (Product Number: AD0068), monoclonal IgG1 that recognizes phosphotyrosine peptide 100 μg/ml stock. Want 0.1 nM final in assay.
• 1. The compound dilution was made by TECAN as per the above scheme. • 2. 16 μL of diluted compound was added to the assay plate by using TECAN. • 3. 10 μL of enzyme mix was added to each well except mins. • 4. 20 μL of substrate and ATP mix were added into each well of the assay plate, manually. • 5. The plate was incubated on a laboratory shaker at room temperature for 60 min. • 6. Meanwhile, the HTRF mix was prepared and 75 μL was added to the HTRF plate. • 7. When the incubation was over, 10 μL of the reaction mixture was transferred to the HTRF assay plate and incubated on a laboratory shaker for 30 min at room temperature. • 8. The reading was taken in Pherastar (ext 337 nm, Em 665 & 620 nm). • 9. The results were analyzed using Graphpad prism after calculation of the z factor, signal window and % inhibition to get the IC50.

| IC50 (A431 cells) [nM] | GI50 [1] [nM] | EC50 [2] [nM] | GI50 [3] [nM] | IC50 (EGFR (T790M/L858R)) [nM] | SMILES |
| --- | --- | --- | --- | --- | --- |
| 59 | 45 | 1.5 | 42 | 1 | C=CC(=O)Nc1cccc(N2C(=O)N(Cc3ccccc3)Cc3cnc(Nc4cnn(CCO)c4)nc32)c1 [Compound 13, N-(3-(3-benzyl-7-((1-(2-hydroxyethyl)-1H-pyrazol-4-yl)amino)-2-oxo-3,4-dihydropyrimido[4,5-d]pyrimidin-1(2H)-yl)phenyl)acrylamide] |
| 8340 | 356 | 71 | 340 | 53 | C=CC(=O)NC1CCCC(N2C(=O)N(Cc3ccccc3)Cc3cnc(Nc4cnn(C)c4)nc32)C1 (stereo not shown) [Compound 24, N-(3-(3-benzyl-7-((1-methyl-1H-pyrazol-4-yl)amino)-2-oxo-3,4-dihydropyrimido[4,5-d]pyrimidin-1(2H)-yl)cyclohexyl)acrylamide] |
| 4400 | 9190 | ≥ 10000 | ≥ 10000 | 303 | Cc1cnc(Nc2ncc3c(n2)N(C2CCCC(NC(=O)/C=C/CN(C)C)C2)C(=O)N(Cc2ccccc2)C3)s1 (stereo not shown) [Compound 27, (E)-N-(3-(3-benzyl-7-((5-methylthiazol-2-yl)amino)-2-oxo-3,4-dihydropyrimido[4,5-d]pyrimidin-1(2H)-yl)cyclohexyl)-4-(dimethylamino)but-2-enamide] |
| 4090 | 2600 | 1080 | 431 | 660 | Cc1csc(Nc2ncc3c(n2)N(C2CCCC(NC(=O)/C=C/CN(C)C)C2)C(=O)N(Cc2ccccc2)C3)n1 (stereo not shown) [Compound 29, (E)-N-(3-(3-benzyl-7-((4-methylthiazol-2-yl)amino)-2-oxo-3,4-dihydropyrimido[4,5-d]pyrimidin-1(2H)-yl)cyclohexyl)-4-(dimethylamino)but-2-enamide] |
| 920 | 2810 | 413 | 2570 | 164 | C=CC(=O)NC1CCCC(N2C(=O)N(Cc3ccccc3)Cc3cnc(Nc4ncc(C)s4)nc32)C1 (stereo not shown) [Compound 30, N-(3-(3-benzyl-7-((5-methylthiazol-2-yl)amino)-2-oxo-3,4-dihydropyrimido[4,5-d]pyrimidin-1(2H)-yl)cyclohexyl)acrylamide] |
| 1970 | 3320 | 299 | 3480 | 281 | CN(C)C/C=C/C(=O)NC1CCCC(N2C(=O)N(Cc3ccccc3)Cc3cnc(Nc4cnn(C)c4)nc32)C1 (stereo not shown) [Compound 31, (E)-N-(3-(3-benzyl-7-((1-methyl-1H-pyrazol-4-yl)amino)-2-oxo-3,4-dihydropyrimido[4,5-d]pyrimidin-1(2H)-yl)cyclohexyl)-4-(dimethylamino)but-2-enamide] |

The next lines start with the molecule.

| SMILES | IC50 (A431 cells) [nM] | GI50 [1] [nM] | EC50 [2] [nM] | GI50 [3] [nM] | IC50 (EGFR (T790M/L858R)) [nM] |
| --- | --- | --- | --- | --- | --- |
| CN(C)C/C=C/C(=O)Nc1cccc(N2C(=O)N(Cc3ccccc3)Cc3cnc(Nc4cnn(CCO)c4)nc32)c1 [Compound 14, (E)-N-(3-(3-benzyl-7-((1-(2-hydroxyethyl)-1H-pyrazol-4-yl)amino)-2-oxo-3,4-dihydropyrimido[4,5-d]pyrimidin-1(2H)-yl)phenyl)-4-(dimethylamino)but-2-enamide] | 6080 | 2570 | 37.8 | 2920 | 5 |
| COCCn1cc(Nc2ncc3c(n2)N(c2cccc(NC(=O)/C=C/CN(C)C)c2)C(=O)N(Cc2ccccc2)C3)cn1 [Compound 16, (E)-N-(3-(3-benzyl-7-((1-(2-methoxyethyl)-1H-pyrazol-4-yl)amino)-2-oxo-3,4-dihydropyrimido[4,5-d]pyrimidin-1(2H)-yl)phenyl)-4-(dimethylamino)but-2-enamide] | 371 | 1170 | 15.7 | 2310 | 1 |
| CN(C)C/C=C/C(=O)Nc1cccc(N2C(=O)N(c3ccc(F)cc3)Cc3cnc(Nc4cnn(C)c4)nc32)c1 [Compound 18, (E)-4-(dimethylamino)-N-(3-(3-(4-fluorophenyl)-7-((1-methyl-1H-pyrazol-4-yl)amino)-2-oxo-3,4-dihydropyrimido[4,5-d]pyrimidin-1(2H)-yl)phenyl)but-2-enamide] | 332 | 421 | 34 | 1100 | 2.5 |
| CN(C)C/C=C/C(=O)N(C)c1cccc(N2C(=O)N(Cc3ccccc3)Cc3cnc(Nc4cnn(C)c4)nc32)c1 [Compound 21, (E)-N-(3-(3-benzyl-7-((1-methyl-1H-pyrazol-4-yl)amino)-2-oxo-3,4-dihydropyrimido[4,5-d]pyrimidin-1(2H)-yl)phenyl)-4-(dimethylamino)-N-methylbut-2-enamide] | 2080 | 2810 | 83.9 | 3350 | 45 |
| Cc1cc(Nc2ncc3c(n2)N(c2cccc(NC(=O)/C=C/CN(C)C)c2)C(=O)N(Cc2ccccc2)C3)sn1 [Compound 22, (E)-N-(3-(3-benzyl-7-((3-methylisothiazol-5-yl)amino)-2-oxo-3,4-dihydropyrimido[4,5-d]pyrimidin-1(2H)-yl)phenyl)-4-(dimethylamino)but-2-enamide] | 46 | 121 | 10 | 278 | 7 |
| Cc1nn(C)cc1Nc1ncc2c(n1)N(c1cccc(NC(=O)/C=C/CN(C)C)c1)C(=O)N(Cc1ccccc1)C2 [Compound 23, (E)-N-(3-(3-benzyl-7-((1,3-dimethyl-1H-pyrazol-4-yl)amino)-2-oxo-3,4-dihydropyrimido[4,5-d]pyrimidin-1(2H)-yl)phenyl)-4-(dimethylamino)but-2-enamide] | 18 | 124 | 6.4 | 299 | 3 |
| C=CC(=O)Nc1cccc(N2C(=O)N(Cc3ccccc3)Cc3cnc(Nc4nc(C)cs4)nc32)c1 [Compound 25, N-(3-(3-benzyl-7-((4-methylthiazol-2-yl)amino)-2-oxo-3,4-dihydropyrimido[4,5-d]pyrimidin-1(2H)-yl)phenyl)acrylamide] | 83 | 320 | 29 | 69 | 3 |
| CN(C)C/C=C/C(=O)Nc1cccc(N2C(=O)N(Cc3ccccc3)Cc3cnc(Nc4cn(C)nn4)nc32)c1 [Compound 26, (E)-N-(3-(3-benzyl-7-((1-methyl-1H-1,2,3-triazol-4-yl)amino)-2-oxo-3,4-dihydropyrimido[4,5-d]pyrimidin-1(2H)-yl)phenyl)-4-(dimethylamino)but-2-enamide] | 3080 | 3330 | 222 | 3690 | 5 |
